Results as given in article PMC11642044 (International Journal of Molecular Sciences, 2024).
Read-outs that look alike come from different tables or passages of the source. Where a SMILES comes first, the peptide text is derived from it.

Key:
[1] = tested on: primary astrocytes; assay: LIF secretion (ELISA), primary astrocytes; format: cell-based, mouse
Protocol: HEK293, U87-MG, 1321N1, SK-N-SH, and SK-N-MC cells were cultured in MEM supplemented with 10% (vol/vol) fetal bovine serum (FBS), 50 U/mL penicillin, and 50 μg/mL streptomycin. Primary astrocyte cultures were prepared from the cerebral cortexes of neonatal mice (P2). The cerebral hemispheres were isolated and transferred to ice-cold Hank’s buffer, and the meninges were carefully removed. Tissues were then minced into approximately 1 mm pieces, triturated, filtered through a 60 µm nylon screen, and collected by centrifugation at approximately 3000× g for 5 min. The cell pellets were dispersed with a pipette and resuspended in a medium containing 10% (vol/vol) FBS in low-glucose Dulbecco’s modified Eagle’s medium. After trituration, the cells were filtered through a 10 µm screen and then plated into 6-well plates at a density of 3 × 10^5 cells/mL and cultured for about 10 days. The medium was replaced twice per week. Dibutyryl cyclic adenosine monophosphate (DBcAMP; 0.15 mM, Sigma, St Louis, MO, USA) was added to induce differentiation when the cells were grown to 95% confluence. […]
Conditioned media were analyzed for the presence of multiple cytokines by using the cytokine multiplex assay kits (Merck Millipore, MA, USA) as previously described. […] The detection beads were then washed again and resuspended in 120 μL of reading buffer. […]

[2] = tested on: U87-MG cells; assay: LIF production into conditioned media (ELISA), U87-MG; format: cell-based, human
[3] = tested on: 1321-N1 cells; assay: Intracellular Ca2+ mobilization by Gq-coupled receptor agonists (FLIPR, Fluo-4), 1321-N1; format: cell-based, human
Protocol: (§1) Cells were seeded in 96-well plates (clear bottom and black wall) at 2.5 × 10^4 cells per well on the day before assay. The cells (~80–100% confluence) were then washed with Hank’s balanced salt solution (HBSS) and aspirated, followed by addition of 100 μL of FLIPR labeling dye (containing Fluo-4 and probenecid in HBSS) to each well before incubation at 37 °C for 1 h. Finally, the 96-well plate containing the labeled cells was transferred to the FLIPR (Molecular Devices, San Jose, CA, USA), and 50 μL of HBSS (with or without agonists) was added to each well. The fluorescent signals that reflect the intracellular Ca^2+ transients were monitored by an excitation wavelength of 488 nm, and detection was undertaken with an emission wavelength from 510 to 570 nm for 3 min upon the drug treatments, as described previously.

[4] = tested on: primary astrocytes; assay: Intracellular Ca2+ mobilization by Gq-coupled receptor agonists (FLIPR, Fluo-4), primary cortical astrocytes; format: cell-based, mouse; conditions: 10 μM agonist, n = 4
Protocol: HEK293, U87-MG, 1321N1, SK-N-SH, and SK-N-MC cells were cultured in MEM supplemented with 10% (vol/vol) fetal bovine serum (FBS), 50 U/mL penicillin, and 50 μg/mL streptomycin. Primary astrocyte cultures were prepared from the cerebral cortexes of neonatal mice (P2). The cerebral hemispheres were isolated and transferred to ice-cold Hank’s buffer, and the meninges were carefully removed. Tissues were then minced into approximately 1 mm pieces, triturated, filtered through a 60 µm nylon screen, and collected by centrifugation at approximately 3000× g for 5 min. The cell pellets were dispersed with a pipette and resuspended in a medium containing 10% (vol/vol) FBS in low-glucose Dulbecco’s modified Eagle’s medium. After trituration, the cells were filtered through a 10 µm screen and then plated into 6-well plates at a density of 3 × 10^5 cells/mL and cultured for about 10 days. The medium was replaced twice per week. Dibutyryl cyclic adenosine monophosphate (DBcAMP; 0.15 mM, Sigma, St Louis, MO, USA) was added to induce differentiation when the cells were grown to 95% confluence. Primary mouse cortical neuronal cultures were obtained from E16 ICR mouse embryos. Briefly, cerebral cortices were removed from mouse embryos and mechanically dissociated in PBS with glucose (18 mM). Neurons were then seeded onto poly-L-lysine (1 mg/mL)-coated 96-well plates at 5 × 10^4 cells/well in a B27 Plus Neuronal culture system (Thermo Fisher Scientific), supplemented with 2 mM glutamine, 5 μM mercaptoethanol, 100 U/mL penicillin and 100 μg/mL streptomycin. The cultured neurons were maintained in a humidified incubator at 37 °C with 5% CO2 for 7 days prior to use.
as §1

[5] = tested on: U87-MG cells; assay: Intracellular Ca2+ mobilization by Gq-coupled receptor agonists (FLIPR, Fluo-4), U87-MG; format: cell-based, human
Protocol: as §1

[6] = tested on: STAT3 in SK-N-MC cells; assay: STAT3 Tyr705 phosphorylation in SK-N-MC by conditioned media from agonist-treated U87-MG; format: cell-based, human
Protocol: (§2) These conditioned media were either immediately applied to SK-N-SH/SK-N-MC cells (80–100% confluence) in 6-well plates for 15 min, or subjected to heat treatment on a 96 °C heat block for 5 min, and then cooled to 37 °C before they were applied to the SK-N-SH/SK-N-MC cells for 15 min. […] For the SK-N-MC-derived conditioned media, SK-N-MC cells (80–100% confluence) in a 10 cm culture dish were serum-starved in 10 mL of MEM (without FBS), with 1 mL of the resulting conditioned medium being collected at indicated time points (15 min, 1 h, 3 h, 6 h). Simultaneously, U87-MG cells (80–100% confluence) in 12-well plates were serum-starved in MEM for 6 h, followed by pretreatment of […] (5 μM, 15 min), and then challenged with the SK-N-MC-derived conditioned media (mentioned above) for 10 min before cell lysis. […]
(§3) SDS-PAGE and Western blotting were performed as described in our previous studies. […] The amount of protein in each sample was determined by detergent compatible (DC) protein assay according to the supplier’s instruction (Bio-Rad, Hercules, CA, USA). […] Resolved proteins were detected by specific primary antibodies and horseradish peroxidase-conjugated secondary antisera. The level of β-actin was determined as an internal control.

[7] = tested on: ERK in SK-N-SH cells; format: cell-based, human
Protocol: as §2, §3

[8] = tested on: ERK in SK-N-MC cells; format: cell-based, human
Protocol: as §2, §3

[9] = tested on: STAT3 in U87-MG cells; assay: STAT3 phosphorylation by direct application of cytokine, U87-MG; format: cell-based, human
[10] = tested on: STAT3 in primary mouse cortical neurons; assay: STAT3 phosphorylation by direct application of cytokine, primary cortical neurons; format: cell-based; conditions: 0–100 ng/mL, 15 min
Protocol: (§4) To determine if the experimental cells were readily responsive to LIF and IL-6, SK-N-MC cells, mouse primary neurons and primary astrocytes (80–100% confluence in 12-well plates) were serum-starved for 6 h, followed by treatment of indicated concentrations (0–100 ng/mL) of LIF and IL-6 for 15 min. The subsequent cell lysates were subjected to SDS-PAGE and Western blot with specific antibodies to detect stimulatory phosphorylated forms and the total amounts of STAT3.
as §3, with “control. […] Chemiluminescence signals were then detected by ChemiDoc imaging systems (Bio-Rad, Hercules, CA, USA) with the subsequent band densities quantified by ImageJ (https://imagej.net/ij/) analysis software (National Institutes of Health, MD, USA). […]” for “control.”

[11] = tested on: STAT3 in primary mouse astrocytes; assay: STAT3 phosphorylation by direct application of cytokine, primary astrocytes; format: cell-based; conditions: 0–100 ng/mL, 15 min
Protocol: as §4
SDS-PAGE and Western blotting were performed as described in our previous studies. In brief, cells in 6-well plates (5 × 10^5 cells/well) were lysed in 500 μL of ice-cold lysis buffer (50 mM Tris-HCl at pH 7.5 containing 100 mM NaCl, 5 mM EDTA, 40 mM NaP2O7, 1% Triton X-100, 1 mM dithiothreitol, 200 μM Na3VO4, 100 μM phenylmethylsulfonyl fluoride, 2 μg/mL leupeptin, 4 μg/mL aprotinin, and 0.7 μg/mL pepstatin) and then gently shaken for 30 min. The amount of protein in each sample was determined by detergent compatible (DC) protein assay according to the supplier’s instruction (Bio-Rad, Hercules, CA, USA). Clarified lysates (30 μg protein per sample) were resolved on 12% SDS-polyacrylamide gels and then transferred to nitrocellulose membranes (Westborough, MA, USA). Resolved proteins were detected by specific primary antibodies and horseradish peroxidase-conjugated secondary antisera. The level of β-actin was determined as an internal control. Immunoblots were visualized by chemiluminescence with the WesternBright ECL reagents from Advansta (San Jose, CA, USA). Chemiluminescence signals were then detected by ChemiDoc imaging systems (Bio-Rad, Hercules, CA, USA) with the subsequent band densities quantified by ImageJ (https://imagej.net/ij/) analysis software (National Institutes of Health, MD, USA). All primary antibodies which specifically recognize B1R, B2R, ERK, p-ERK, p38, p-p38, JNK, p-JNK, STAT3, p-STAT3, and β-actin were applied at 1:1000 dilution for Western blotting.

[12] = tested on: STAT3 in SK-N-MC cells; assay: STAT3 phosphorylation by direct application of cytokine, SK-N-MC; format: cell-based, human; conditions: LIF 0–100 ng/mL, 15 min
Protocol: as §4
as §3, with “control. […] Chemiluminescence signals were then detected by ChemiDoc imaging systems (Bio-Rad, Hercules, CA, USA) with the subsequent band densities quantified by ImageJ (https://imagej.net/ij/) analysis software (National Institutes of Health, MD, USA). […]” for “control.”

Work on `N=C(N)NCCC[C@H](NC(=O)[C@H](Cc1ccccc1)NC(=O)[C@@H]1CCCN1C(=O)[C@H](CO)NC(=O)[C@H](Cc1ccccc1)NC(=O)CNC(=O)[C@@H]1CCCN1C(=O)[C@@H]1CCCN1C(=O)[C@@H](N)CCCNC(=N)N)C(=O)O` [bradykinin] (H-RPPGFSPFR-OH) yielded an EC50 [1] of 23 nM.

With `C[N+](C)(C)CCOC(N)=O` [carbachol] the LIF production ([2]; 10 μM agonist, 24 h, U87-MG, ELISA, n = 3) was “failed to induce the production of LIF”, the “Ca2+ response, fold stimulation” value ([3]; 10 μM agonist, 1321-N1, FLIPR) was “over 100 fold” and the “intracellular Ca2+ response” value ([3]; 10 μM agonist, 1321-N1, FLIPR, Fluo-4, 3 min, n = 3) was “elicited Ca^2+ responses in 1321-N1 cells”. For the same compound, the “intracellular Ca2+ mobilization” value [4] was “significantly stimulated Ca^2+ mobilization” and the “intracellular Ca2+ response” value ([5]; 10 μM agonist, U87-MG, FLIPR, Fluo-4, 3 min, n = 3) was “lack of a carbachol-stimulated Ca^2+ response”.

For `NCCc1c[nH]cn1` [histamine], the “STAT3 Tyr705 phosphorylation by conditioned media” value [6] was “stimulated STAT3 Tyr^705 phosphorylation”, the LIF production [2] was “significantly elevated the levels of LIF” and the “Ca2+ response, fold stimulation” value [3] was “over 100 fold”. For the same compound, the “intracellular Ca2+ response” value [3] was “significantly stimulated intracellular Ca^2+ responses”, the “ERK phosphorylation by conditioned media” value [7] was “little or no change in ERK phosphorylation” and the “ERK phosphorylation by conditioned media” value [8] was “little or no change in ERK phosphorylation”. For the same compound, the “Ca2+ response, fold stimulation” value [5] was “over 100 fold” and the “intracellular Ca2+ response” value [5] was “significantly stimulated intracellular Ca^2+ responses”.

In the case of leukemia inhibitory factor [LIF], the STAT3 phosphorylation [9] is reported as “readily stimulated by LIF in a dose-dependent manner”, the STAT3 phosphorylation [10] is reported as “dose-dependently stimulated STAT3 phosphorylation” and the “STAT3 response compared with IL-6” value [10] is reported as “apparently stronger than that induced by IL-6”. For the same compound, the “potency in STAT3 phosphorylation compared with IL-6” value [11] was “even more potent than IL-6”, the STAT3 phosphorylation ([11]; n = 3) was “readily stimulated by LIF in a dose-dependent manner” and the STAT3 phosphorylation [12] was “dose-dependent manner”.
